Like-named read-outs stand apart in the source and are kept apart here.
Experiments:
LS174T cell line = assay: Growth inhibition, CyQUANT Direct Cell Proliferation Assay, LS174T; assay type: cell-based; details: Homo sapiens
Experimental: (§1) SKCO1, LS180, and LS174T cell lines were purchased from ATCC. CW2 cell line was purchased from Riken. GP2D cell line was purchased from Sigma/ECACC. All cell lines were cultured in manufacturer's recommended media at 37° C., 5% CO2. Briefly, cells were suspended in 200 μL of media and seeded at 300 to 1,800 cells per well in tissue culture treated 96-well plates with black walls and clear bottom. Plates were incubated overnight and initial (To) read was performed the following day using CyQUANT Direct Cell Proliferation Assay Kit (Thermo Fisher Scientific) according to manufacturer's protocol. All compounds were solubilized in DMSO and prepared at 3-fold serial dilution, using 9 points starting at 30 μM as highest concentration, administered to cells and incubated for 120 to 168 hours, at which point CyQUANT assay measurement was performed using Acumen Cellista instrument (Ex/Em 480/520 nm). Media-only wells were used as blank, and 0.3% DMSO was used as DMSO-treated cell control. Growth inhibition (percent response) was calculated using the following formula in Excel: “=if ([Compound treated Day N]>[Untreated Day 0, AVG], ([Compound treated Day N]−[Untreated Day 0, AVG])/([Untreated Day N]−[Untreated Day 0, AVG])*100, ([Compound Treated Day N]−[Untreated Day 0, AVG])/([Untreated Day 0, AVG])*100)”. GI50 is the response corresponding to the 50% of untreated control.
(§2) GI50 data are reported in Tables 4a, 4b, 4c, 4d, and 4e for compounds in Table 1. In Tables 4a, 4b, 4c, 4d, and 4e below, According to the code, A represents a GI50 value of ≤0.1 μM, B represents a GI50 value>0.1 μM and ≤1 μM, C represents an GI50 value>1 μM.

CRBN/DDB1 = CRBN/DDB1 (Homo sapiens, UniProt Q96SW2); assay: HTRF binding assay (displacement of Cy5-thalidomide probe from CRBN/DDB1); details: CRBN/DDB1 2.5 nM, Cy5-Thalidomide 100 nM, 30 min; geometric mean; read-out: HTRF_Thali_Disp_DR_geo_IC50
How it was run: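 HTRF displacement of Cy5-thalidomide (100 nM) from His-tagged CRBN/DDB1 (2.5 nM) with anti-His Tb cryptate in 20 mM HEPES, 20 mM NaCl, 0.2 mM TCEP, 0.2 mM EDTA, 0.005% Tween20. 10-point 1:3 series, 30 min ambient. 665/620 nm ratio fitted 4-parameter for IC50; Ki by Cheng-Prusoff from geometric-mean IC50.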

GP2D cell line = assay: Growth inhibition, CyQUANT Direct Cell Proliferation Assay, GP2D; assay type: cell-based
Experimental: as §1, §2

CW2 cell line = assay: Growth inhibition, CyQUANT Direct Cell Proliferation Assay, CW2; assay type: cell-based; details: Homo sapiens
Experimental: as §1, §2

LS180 cell line = assay: Growth inhibition, CyQUANT Direct Cell Proliferation Assay, LS180; assay type: cell-based; details: Homo sapiens
Experimental: as §1, §2

CK1α = biological target: T1, CK1α (Homo sapiens, UniProt P48729); assay: CK1α NanoBit Assay (HiBiT-tagged CSNK1A1, HEK293 clonal lines); assay type: cell-based; details: HEK293 HiBiT-CSNK1A1/LgBiT cells, 24 h incubation
T1 construct: HEK293 clonal lines with CRISPR KI HiBiT tag on CSNK1A1
How it was run: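 HEK293 clones carrying a CRISPR knock-in HiBiT tag on CSNK1A1 and stably expressing LgBiT are treated with compound for 24 hours at 37° C, 5% CO2, then read by luminescence. Response is normalized as 100*(S−N)/(P−N) against plate negative and positive controls, and DC50 values are derived.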

SKCO1 cell line = assay: Growth inhibition, CyQUANT Direct Cell Proliferation Assay, SKCO1; assay type: cell-based; details: Homo sapiens
Experimental: as §1, §2

[1] = 120 to 168 hours, read-out: LS174T GI50
[2] = GP2D, 120 to 168 hours, read-out: GP2D GI50
[3] = CW-2, CW2, 120 to 168 hours, read-out: CW2 GI50
[4] = LS180, 120 to 168 hours, read-out: LS180 GI50
[5] = SK-CO-1, SKCO1, 120 to 168 hours, read-out: SKCO1 GI50
[6] = LS180, read-out: LS180 GI50 (μM)
[7] = SK-CO-1, read-out: SKCO1 GI50 (μM)

Chain of CRBN/DDB1 (Q96SW2 whole entry, species assumed): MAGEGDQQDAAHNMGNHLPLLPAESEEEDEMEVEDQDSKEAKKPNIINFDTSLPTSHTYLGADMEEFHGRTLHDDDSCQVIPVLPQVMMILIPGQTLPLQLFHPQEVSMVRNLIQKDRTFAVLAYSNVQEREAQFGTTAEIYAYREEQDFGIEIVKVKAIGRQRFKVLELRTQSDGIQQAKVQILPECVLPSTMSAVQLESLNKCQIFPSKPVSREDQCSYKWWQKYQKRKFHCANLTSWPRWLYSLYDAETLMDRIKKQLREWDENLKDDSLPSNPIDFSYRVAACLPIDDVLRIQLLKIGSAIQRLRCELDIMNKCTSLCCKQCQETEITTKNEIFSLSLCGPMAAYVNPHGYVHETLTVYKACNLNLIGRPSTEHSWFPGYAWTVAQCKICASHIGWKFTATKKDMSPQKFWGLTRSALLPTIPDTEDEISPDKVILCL
Chain of CRBN/DDB1 (Q16531 whole entry partner, species assumed): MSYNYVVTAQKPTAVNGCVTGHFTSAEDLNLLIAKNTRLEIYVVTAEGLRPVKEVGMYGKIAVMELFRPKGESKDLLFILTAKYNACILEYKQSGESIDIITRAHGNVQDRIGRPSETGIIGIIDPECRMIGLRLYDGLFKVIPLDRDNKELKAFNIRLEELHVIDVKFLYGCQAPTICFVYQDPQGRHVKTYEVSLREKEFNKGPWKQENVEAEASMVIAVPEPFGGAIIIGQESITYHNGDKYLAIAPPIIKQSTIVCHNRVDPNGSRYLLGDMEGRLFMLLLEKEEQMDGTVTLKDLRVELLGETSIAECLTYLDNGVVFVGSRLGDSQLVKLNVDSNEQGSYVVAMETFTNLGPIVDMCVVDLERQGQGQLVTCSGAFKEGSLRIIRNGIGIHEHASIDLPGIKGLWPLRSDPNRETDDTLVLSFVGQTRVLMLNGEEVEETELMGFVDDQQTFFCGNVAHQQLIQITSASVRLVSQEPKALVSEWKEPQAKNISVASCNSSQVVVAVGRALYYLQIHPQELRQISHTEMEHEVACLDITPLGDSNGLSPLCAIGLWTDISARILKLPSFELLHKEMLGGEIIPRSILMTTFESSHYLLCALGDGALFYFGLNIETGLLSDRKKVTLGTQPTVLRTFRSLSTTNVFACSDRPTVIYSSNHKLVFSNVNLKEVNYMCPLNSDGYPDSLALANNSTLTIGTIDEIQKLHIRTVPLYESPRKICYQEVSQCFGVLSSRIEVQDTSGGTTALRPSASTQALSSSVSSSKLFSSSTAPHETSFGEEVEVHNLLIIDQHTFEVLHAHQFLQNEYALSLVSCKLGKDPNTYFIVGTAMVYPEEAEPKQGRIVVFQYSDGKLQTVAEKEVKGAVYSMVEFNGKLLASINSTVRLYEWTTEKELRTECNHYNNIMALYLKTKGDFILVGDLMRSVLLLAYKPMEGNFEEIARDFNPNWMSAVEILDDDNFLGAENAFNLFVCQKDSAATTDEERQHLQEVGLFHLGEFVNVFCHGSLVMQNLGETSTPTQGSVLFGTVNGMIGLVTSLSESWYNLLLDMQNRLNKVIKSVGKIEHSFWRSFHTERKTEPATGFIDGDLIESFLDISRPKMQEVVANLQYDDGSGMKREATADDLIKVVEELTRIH
T1 sequence (P48729 whole entry): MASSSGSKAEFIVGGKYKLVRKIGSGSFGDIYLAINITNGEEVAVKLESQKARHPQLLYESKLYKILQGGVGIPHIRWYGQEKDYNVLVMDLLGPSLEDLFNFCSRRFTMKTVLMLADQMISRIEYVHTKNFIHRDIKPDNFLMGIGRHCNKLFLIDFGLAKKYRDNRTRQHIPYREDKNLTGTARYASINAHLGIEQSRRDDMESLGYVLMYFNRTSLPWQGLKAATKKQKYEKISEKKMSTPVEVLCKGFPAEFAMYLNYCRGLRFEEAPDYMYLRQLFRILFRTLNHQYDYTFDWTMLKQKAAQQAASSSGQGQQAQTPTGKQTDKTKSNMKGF
T1 sequence (Q96SW2 whole entry, further chain): as the sequence (Q96SW2 whole entry, species assumed) above
T1 sequence (Q16531 2-1140 partner limits assumed): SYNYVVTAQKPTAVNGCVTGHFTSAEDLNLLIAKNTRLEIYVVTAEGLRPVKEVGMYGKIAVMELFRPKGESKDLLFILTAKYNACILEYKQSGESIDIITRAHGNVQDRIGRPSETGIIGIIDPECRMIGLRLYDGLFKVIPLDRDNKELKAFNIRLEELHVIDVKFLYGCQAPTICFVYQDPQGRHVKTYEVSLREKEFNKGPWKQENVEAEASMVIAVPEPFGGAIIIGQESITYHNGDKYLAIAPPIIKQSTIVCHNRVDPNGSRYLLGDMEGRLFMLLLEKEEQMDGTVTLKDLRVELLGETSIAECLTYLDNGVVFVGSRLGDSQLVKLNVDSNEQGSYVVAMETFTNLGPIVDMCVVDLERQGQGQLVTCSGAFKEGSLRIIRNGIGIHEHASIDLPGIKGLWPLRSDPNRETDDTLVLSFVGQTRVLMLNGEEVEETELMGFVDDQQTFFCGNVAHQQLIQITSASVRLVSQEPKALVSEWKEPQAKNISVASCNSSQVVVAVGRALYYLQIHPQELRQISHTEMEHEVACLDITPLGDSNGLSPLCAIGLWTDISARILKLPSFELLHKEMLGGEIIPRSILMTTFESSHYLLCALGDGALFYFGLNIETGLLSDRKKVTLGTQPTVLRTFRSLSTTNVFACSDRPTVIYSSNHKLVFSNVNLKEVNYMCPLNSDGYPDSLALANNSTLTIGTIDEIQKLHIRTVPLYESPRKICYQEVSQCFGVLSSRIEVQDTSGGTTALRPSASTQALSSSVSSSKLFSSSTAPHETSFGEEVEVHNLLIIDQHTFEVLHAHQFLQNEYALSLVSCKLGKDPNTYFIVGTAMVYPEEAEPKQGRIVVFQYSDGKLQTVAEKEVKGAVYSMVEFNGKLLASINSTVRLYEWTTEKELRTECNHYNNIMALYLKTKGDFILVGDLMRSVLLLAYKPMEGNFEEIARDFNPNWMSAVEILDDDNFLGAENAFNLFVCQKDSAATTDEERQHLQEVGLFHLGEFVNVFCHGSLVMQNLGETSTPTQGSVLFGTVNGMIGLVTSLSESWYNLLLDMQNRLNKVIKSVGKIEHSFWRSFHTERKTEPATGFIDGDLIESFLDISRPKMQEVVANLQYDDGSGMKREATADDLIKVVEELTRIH

| Structure (SMILES) | IC50 (CRBN/DDB1) | DC50 (CK1α) | GI50 (SKCO1 cell line; [5]) | GI50 (LS174T cell line; [1]) | GI50 (GP2D cell line; [2]) | GI50 (CW2 cell line; [3]) | GI50 (LS180 cell line; [4]) | GI50 (LS174T cell line; read-out: LS174T GI50 (μM)) | GI50 (GP2D cell line; GP2d, read-out: GP2D GI50 (μM)) | GI50 (CW2 cell line; CW-2, read-out: CW2 GI50 (μM)) | GI50 (LS180 cell line; [6]) | GI50 (SKCO1 cell line; [7]) |
| --- | --- | --- | --- | --- | --- | --- | --- | --- | --- | --- | --- | --- |
| O=C1CCC(N2Cc3cc(NC(=O)N4CCc5cc(C6CCC6)ccc54)ccc3C2=O)C(=O)N1 (stereo not drawn) [Compound 357, 5-cyclobutyl-N-(2-(2,6-dioxopiperidin-3-yl)-1-oxoisoindolin-5-yl)indoline-1-carboxamide] | > 1000 nM | < 0.1 µM |  |  |  |  |  | < 0.1 µM | < 0.1 µM | < 0.1 µM | 0.1 to 1 µM | < 0.1 µM |
| CC1(C)CN(C(=O)Nc2ccc3c(c2)CN(C2CCC(=O)NC2=O)C3=O)c2ccccc21 (stereo not drawn) [Compound 124, N-(2-(2,6-dioxopiperidin-3-yl)-1-oxoisoindolin-5-yl)-3,3-dimethylindoline-1-carboxamide] | 100 to 1000 nM | < 0.1 µM |  |  |  |  |  | < 0.1 µM | < 0.1 µM | < 0.1 µM | 0.1 to 1 µM | < 0.1 µM |
| O=C1CCC(N2Cc3cc(NC(=O)N4CCc5cc(C(F)(F)F)ncc54)ccc3C2=O)C(=O)N1 (stereo not drawn) [Compound 287, N-(2-(2,6-dioxopiperidin-3-yl)-1-oxoisoindolin-5-yl)-5-(trifluoromethyl)-2,3-dihydro-1H-pyrrolo[2,3-c]pyridine-1-carboxamide] | 100 to 1000 nM | < 0.1 µM |  |  |  |  |  | < 0.1 µM | < 0.1 µM | < 0.1 µM | 0.1 to 1 µM | < 0.1 µM |
| O=C1CCC(N2Cc3cc(NC(=O)N4CCc5cc(C(F)(F)F)ccc54)ccc3C2=O)C(=O)N1 (stereo not drawn) [Compound 185, N-(2-(2,6-dioxopiperidin-3-yl)-1-oxoisoindolin-5-yl)-5-(trifluoromethyl)indoline-1-carboxamide] | 100 to 1000 nM | < 0.1 µM |  |  |  |  |  | 0.1 to 1 µM | 0.1 to 1 µM | 0.1 to 1 µM | 0.1 to 1 µM | 0.1 to 1 µM |
| O=C1CCC(N2Cc3cc(NC(=O)N4CCc5ccc(Cl)cc54)ccc3C2=O)C(=O)N1 (stereo not drawn) [Compound 137, 6-chloro-N-(2-(2,6-dioxopiperidin-3-yl)-1-oxoisoindolin-5-yl)indoline-1-carboxamide] | 100 to 1000 nM | < 0.1 µM |  |  |  |  |  | 0.1 to 1 µM | 0.1 to 1 µM | < 0.1 µM | 0.1 to 1 µM | 0.1 to 1 µM |
| N#Cc1ccc2c(c1)CCN2C(=O)Nc1ccc2c(c1)CN(C1CCC(=O)NC1=O)C2=O (stereo not drawn) [Compound 142, 5-cyano-N-(2-(2,6-dioxopiperidin-3-yl)-1-oxoisoindolin-5-yl)indoline-1-carboxamide] | 100 to 1000 nM | < 0.1 µM |  |  |  |  |  | 0.1 to 1 µM | 0.1 to 1 µM | > 1 µM | 0.1 to 1 µM | 0.1 to 1 µM |
| O=C1CCC(N2Cc3cc(NC(=O)N4CC5(CC5)c5ccccc54)ccc3C2=O)C(=O)N1 (stereo not drawn) [Compound 210, N-(2-(2,6-dioxopiperidin-3-yl)-1-oxoisoindolin-5-yl)spiro[cyclopropane-1,3′-indoline]-1′-carboxamide] | 100 to 1000 nM | < 0.1 µM |  |  |  |  |  | < 0.1 µM | < 0.1 µM | < 0.1 µM | 0.1 to 1 µM | < 0.1 µM |

The next lines start with results.

| IC50 (CRBN/DDB1) | DC50 (CK1α) | GI50 (SKCO1 cell line; [5]) | Structure (SMILES) | GI50 (LS174T cell line; [1]) | GI50 (GP2D cell line; [2]) | GI50 (CW2 cell line; [3]) | GI50 (LS180 cell line; [4]) | GI50 (LS174T cell line; read-out: LS174T GI50 (μM)) | GI50 (GP2D cell line; GP2d, read-out: GP2D GI50 (μM)) | GI50 (CW2 cell line; CW-2, read-out: CW2 GI50 (μM)) | GI50 (LS180 cell line; [6]) | GI50 (SKCO1 cell line; [7]) |
| --- | --- | --- | --- | --- | --- | --- | --- | --- | --- | --- | --- | --- |
| 100 to 1000 nM | < 0.1 µM | < 0.1 µM | O=C1CCC(N2Cc3cc(NC(=O)N4CCc5c4cccc5-n4cccn4)ccc3C2=O)C(=O)N1 (stereo not drawn) [Compound 340, N-(2-(2,6-dioxopiperidin-3-yl)-1-oxoisoindolin-5-yl)-4-(1H-pyrazol-1-yl)indoline-1-carboxamide] | < 0.1 µM | < 0.1 µM | 0.1 to 1 µM | 0.1 to 1 µM |  |  |  |  |  |
| 100 to 1000 nM | < 0.1 µM | < 0.1 µM | O=C1CCC(N2Cc3cc(NC(=O)N4CC5(CCOCC5)c5ccccc54)ccc3C2=O)C(=O)N1 (stereo not drawn) [Compound 189] | < 0.1 µM | < 0.1 µM | < 0.1 µM | < 0.1 µM |  |  |  |  |  |
| < 100 nM | < 0.1 µM | 0.1 to 1 µM | N#Cc1cccc2c1CCN2C(=O)Nc1ccc2c(c1)CN(C1CCC(=O)NC1=O)C2=O (stereo not drawn) [Compound 148, 4-cyano-N-(2-(2,6-dioxopiperidin-3-yl)-1-oxoisoindolin-5-yl)indoline-1-carboxamide] | 0.1 to 1 µM | 0.1 to 1 µM | 0.1 to 1 µM | 0.1 to 1 µM |  |  |  |  |  |
| 100 to 1000 nM | < 0.1 µM | < 0.1 µM | CC1(c2ccc3c(c2)CCN3C(=O)Nc2ccc3c(c2)CN(C2CCC(=O)NC2=O)C3=O)CC1 (stereo not drawn) [Compound 344, N-(2-(2,6-dioxopiperidin-3-yl)-1-oxoisoindolin-5-yl)-5-(1-methylcyclopropyl)indoline-1-carboxamide] | 0.1 to 1 µM | < 0.1 µM | < 0.1 µM | 0.1 to 1 µM |  |  |  |  |  |
| 100 to 1000 nM | < 0.1 µM | < 0.1 µM | COCc1cccc2c1CCN2C(=O)Nc1ccc2c(c1)CN(C1CCC(=O)NC1=O)C2=O (stereo not drawn) [Compound 341] | 0.1 to 1 µM | < 0.1 µM | 0.1 to 1 µM | 0.1 to 1 µM |  |  |  |  |  |
| 100 to 1000 nM | < 0.1 µM | < 0.1 µM | C[C@H]1CN(C(=O)Nc2ccc3c(c2)CN(C2CCC(=O)NC2=O)C3=O)c2ccccc21 (stereo partly drawn) [Compound 284] | < 0.1 µM | 0.1 to 1 µM | < 0.1 µM | 0.1 to 1 µM |  |  |  |  |  |
| 100 to 1000 nM | < 0.1 µM | < 0.1 µM | COC[C@H]1CN(C(=O)Nc2ccc3c(c2)CN(C2CCC(=O)NC2=O)C3=O)c2cccc(C(F)(F)F)c21 (stereo partly drawn) [Compound 329, (3R)—N-(2-(2,6-dioxopiperidin-3-yl)-1-oxoisoindolin-5-yl)-3-(methoxymethyl)-4-(trifluoromethyl)indoline-1-carboxamide] | 0.1 to 1 µM | 0.1 to 1 µM | 0.1 to 1 µM | 0.1 to 1 µM |  |  |  |  |  |
| 100 to 1000 nM | < 0.1 µM | < 0.1 µM | COC[C@@H]1Cc2ccccc2N1C(=O)Nc1ccc2c(c1)CN(C1CCC(=O)NC1=O)C2=O (stereo in doubt) [Compound 337, (S)—N-(2-((S)-2,6-dioxopiperidin-3-yl)-1-oxoisoindolin-5-yl)-2-(methoxymethyl)indoline-1-carboxamide] | 0.1 to 1 µM | 0.1 to 1 µM | 0.1 to 1 µM | 0.1 to 1 µM |  |  |  |  |  |
| 100 to 1000 nM | < 0.1 µM | < 0.1 µM | O=C1CCC(N2Cc3cc(NC(=O)N4CCc5c(C6CC6)cccc54)ccc3C2=O)C(=O)N1 (stereo not drawn) [Compound 164, 4-cyclopropyl-N-(2-(2,6-dioxopiperidin-3-yl)-1-oxoisoindolin-5-yl)indoline-1-carboxamide] | < 0.1 µM | < 0.1 µM | < 0.1 µM | 0.1 to 1 µM |  |  |  |  |  |
| 100 to 1000 nM | < 0.1 µM | < 0.1 µM | C[C@H]1Cc2ccccc2N1C(=O)Nc1ccc2c(c1)CN(C1CCC(=O)NC1=O)C2=O (stereo partly drawn) [Compound 101, (2S)—N-(2-(2,6-dioxopiperidin-3-yl)-1-oxoisoindolin-5-yl)-2-methylindoline-1-carboxamide] | < 0.1 µM | < 0.1 µM | < 0.1 µM | < 0.1 µM |  |  |  |  |  |
| 100 to 1000 nM | < 0.1 µM | 0.1 to 1 µM | O=C1CCC(N2Cc3cc(NC(=O)N4Cc5ccccc5C4)ccc3C2=O)C(=O)N1 (stereo not drawn) [Compound 106, N-(2-(2,6-dioxopiperidin-3-yl)-1-oxoisoindolin-5-yl)isoindoline-2-carboxamide] | > 1 µM | 0.1 to 1 µM | 0.1 to 1 µM | > 1 µM |  |  |  |  |  |

Reference: patent publication US20250171420A1 (Monte Rosa Therapeutics, Inc., priority 2022, published 2025)
